Our source for the Kd values is publication PMC10763615, “Identification and engineering of potent cyclic peptides with selective or promiscuous binding through biochemical profiling and bioinformatic data analysis” (RSC Chemical Biology, 2023).

What all share (assay type): binding
The target of one test is T1, FGF-R4 ECD (Homo sapiens, UniProt P22455).
T1 construct: DNA constructs for the extracellular domain (ECD) of human FGF-; HPC4 (C); made in house; host or cells: HEK 293-6E
T1 sequence (P22455 22-369 limits assumed): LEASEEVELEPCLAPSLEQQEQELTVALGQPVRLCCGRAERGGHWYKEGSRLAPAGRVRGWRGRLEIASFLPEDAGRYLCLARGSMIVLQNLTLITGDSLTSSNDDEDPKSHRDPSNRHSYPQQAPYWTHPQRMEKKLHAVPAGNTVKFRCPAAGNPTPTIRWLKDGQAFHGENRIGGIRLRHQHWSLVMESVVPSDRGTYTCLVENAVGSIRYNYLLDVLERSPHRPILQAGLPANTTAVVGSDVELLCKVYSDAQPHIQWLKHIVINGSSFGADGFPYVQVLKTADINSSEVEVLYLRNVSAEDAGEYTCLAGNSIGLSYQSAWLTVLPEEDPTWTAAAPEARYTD
The experiment in a line: single concentration BLI of crude peptides. In short, it runs like this:
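Biotinylated FGF-R ECD on streptavidin biosensors was dipped into ~1 μM crude peptide in PBS pH7.4 with 0.05% Tween-20 and 0.01% BSA for association, then into buffer for dissociation, and followed by BLI. Fitted KD values were adjusted for peptide concentration measured by UPLC-CAD.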

In a further test the target is T2, FGF-R1C ECD (Homo sapiens, UniProt P11362).
T2 sequence (P11362 22-376 limits assumed): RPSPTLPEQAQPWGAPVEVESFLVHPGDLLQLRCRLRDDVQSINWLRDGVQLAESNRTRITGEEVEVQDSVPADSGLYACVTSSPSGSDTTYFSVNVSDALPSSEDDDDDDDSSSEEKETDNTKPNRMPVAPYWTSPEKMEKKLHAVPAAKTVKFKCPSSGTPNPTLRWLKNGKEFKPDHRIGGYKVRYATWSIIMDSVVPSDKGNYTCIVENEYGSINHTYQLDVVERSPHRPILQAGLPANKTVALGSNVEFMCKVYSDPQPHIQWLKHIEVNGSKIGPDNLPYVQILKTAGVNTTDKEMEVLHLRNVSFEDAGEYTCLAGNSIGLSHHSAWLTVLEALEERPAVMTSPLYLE
The experiment in a line: biochemical. More on the design: DNA constructs for the extracellular domain (ECD) of human FGF-; HPC4 (C); made in house; host or cells: HEK 293-6E. In short, it runs like this: (§1)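 BLI, streptavidin sensors loaded with biotinylated receptor ECD. Single-point: ~1 μM crude peptide, PBS pH7.4/0.05% Tween-20/0.01% BSA; association then dissociation in buffer. KD corrected for UPLC-CAD-determined concentration.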

The target of another test is T3, FGF-R3C ECD (Homo sapiens, UniProt P22607).
T3 sequence (P22607 23-375 limits assumed): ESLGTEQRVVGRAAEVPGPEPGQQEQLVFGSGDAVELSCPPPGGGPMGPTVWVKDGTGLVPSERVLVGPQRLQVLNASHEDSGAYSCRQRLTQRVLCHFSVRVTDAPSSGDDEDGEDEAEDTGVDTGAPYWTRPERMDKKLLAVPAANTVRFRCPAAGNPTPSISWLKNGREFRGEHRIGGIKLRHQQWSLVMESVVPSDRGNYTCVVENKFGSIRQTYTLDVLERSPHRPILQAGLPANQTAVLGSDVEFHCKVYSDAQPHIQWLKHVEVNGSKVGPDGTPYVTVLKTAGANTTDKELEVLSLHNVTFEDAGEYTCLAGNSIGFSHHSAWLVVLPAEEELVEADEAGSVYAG
As to the kind of experiment: biochemical. More on the design: DNA constructs for the extracellular domain (ECD) of human FGF-; HPC4 (C); made in house; host or cells: HEK 293-6E. The gist of the method:
as §1

[1] abbreviates: crude T18 selection 1 (1:1:1) peptides, single concentration BLI (Table S4), read-out: KD (4).
Setting [2] is: crude NNK peptides, single concentration BLI (Table S3), read-out: KD (4).

Like-named read-outs stand apart in the source and are kept apart here. Positions of bridges follow the written chain, without caps; N, C: chain ends. Residues, ends and D or L forms follow the SMILES beside them.

Take `CSCC[C@H](NC(C)=O)C(=O)N[C@H]1CSSC[C@@H](C(=O)NCC(=O)N[C@@H](CO)C(=O)NCC(=O)N[C@@H](CO)C(=O)N[C@@H](CC(=O)O)C(=O)N[C@@H](Cc2ccc(O)cc2)C(=O)N[C@@H](CCCCN)C(=O)N[C@@H](CC(=O)O)C(=O)N[C@@H](CC(=O)O)C(=O)N[C@@H](CC(=O)O)C(=O)N[C@@H](CC(=O)O)C(=O)N[C@@H](CCCCN)C(N)=O)NC(=O)[C@H](CO)NC(=O)[C@H](Cc2c[nH]cn2)NC(=O)[C@H](Cc2ccccc2)NC(=O)[C@H](CC(C)C)NC(=O)[C@H](CCCCN)NC(=O)[C@H](Cc2ccc(O)cc2)NC(=O)[C@H](Cc2ccc(O)cc2)NC(=O)[C@H](CC(C)C)NC(=O)[C@H](CC(C)C)NC(=O)[C@H](Cc2c[nH]cn2)NC1=O` (Ac-MCHLLYYKLFHSCGSGSDYKDDDDK-NH2; disulfide 2-13): the Kd at FGF-R4 ECD (setting [1]) was 114 nM; on FGF-R1C ECD it was 63 nM; on FGF-R3C ECD it was more than 10 µM.

Regarding `CSCC[C@H](NC(C)=O)C(=O)N[C@H]1CSSC[C@@H](C(=O)NCC(=O)N[C@@H](CO)C(=O)NCC(=O)N[C@@H](CO)C(=O)N[C@@H](CCC(=O)O)C(=O)N[C@@H](CCC(=O)O)C(=O)NCC(=O)N[C@@H](CO)C(=O)NCC(=O)N[C@@H](CO)C(=O)N[C@@H](CC(=O)O)C(=O)N[C@@H](Cc2ccc(O)cc2)C(=O)N[C@@H](CCCCN)C(=O)N[C@@H](CC(=O)O)C(=O)N[C@@H](CC(=O)O)C(=O)N[C@@H](CC(=O)O)C(=O)N[C@@H](CC(=O)O)C(=O)N[C@@H](CCCCN)C(N)=O)NC(=O)[C@H](CO)NC(=O)[C@H](Cc2c[nH]cn2)NC(=O)[C@H](Cc2ccccc2)NC(=O)[C@H](CC(C)C)NC(=O)[C@H](CCCNC(=N)N)NC(=O)[C@H](Cc2c[nH]c3ccccc23)NC(=O)[C@H](Cc2ccc(O)cc2)NC(=O)[C@H](Cc2ccc(O)cc2)NC(=O)[C@H](CC(C)C)NC(=O)[C@H](Cc2c[nH]cn2)NC(=O)[C@H](CCCNC(=N)N)NC(=O)[C@H](Cc2c[nH]cn2)NC1=O` (Ac-MCHRHLYYWRLFHSCGSGSEEGSGSDYKDDDDK-NH2; disulfide 2-15), the values for the Kd at FGF-R4 ECD (setting [1]), on FGF-R1C ECD and at FGF-R3C ECD were 5 nM, more than 10000 nM and more than 10 µM, respectively.

With `CC[C@H](C)[C@@H]1NC(=O)[C@H](Cc2ccc(O)cc2)NC(=O)[C@H](CCCNC(=N)N)NC(=O)[C@H](Cc2c[nH]cn2)NC(=O)[C@@H](NC(=O)[C@H](CCSC)NC(C)=O)CSSC[C@@H](C(=O)NCC(=O)N[C@@H](CO)C(=O)NCC(=O)N[C@@H](CO)C(=O)N[C@@H](CC(=O)O)C(=O)N[C@@H](Cc2ccc(O)cc2)C(=O)N[C@@H](CCCCN)C(=O)N[C@@H](CC(=O)O)C(=O)N[C@@H](CC(=O)O)C(=O)N[C@@H](CC(=O)O)C(=O)N[C@@H](CC(=O)O)C(=O)N[C@@H](CCCCN)C(N)=O)NC(=O)[C@H](Cc2c[nH]cn2)NC(=O)[C@H](Cc2c[nH]c3ccccc23)NC(=O)[C@H](Cc2ccc(O)cc2)NC(=O)[C@H](CC(=O)O)NC(=O)[C@H](CC(C)C)NC(=O)[C@H](Cc2ccc(O)cc2)NC1=O` (Ac-MCHRYIYLDYWHCGSGSDYKDDDDK-NH2; disulfide 2-13), the Kd on FGF-R4 ECD is 44 nM; at FGF-R1C ECD, more than 10000 nM; at FGF-R3C ECD, more than 10 µM.

On to `CC[C@H](C)[C@@H]1NC(=O)[C@H](Cc2ccc(O)cc2)NC(=O)[C@H](Cc2c[nH]cn2)NC(=O)[C@@H](NC(=O)[C@H](CCSC)NC(C)=O)CSSC[C@@H](C(=O)NCC(=O)N[C@@H](CO)C(=O)NCC(=O)N[C@@H](CO)C(=O)N[C@@H](CC(=O)O)C(=O)N[C@@H](Cc2ccc(O)cc2)C(=O)N[C@@H](CCCCN)C(=O)N[C@@H](CC(=O)O)C(=O)N[C@@H](CC(=O)O)C(=O)N[C@@H](CC(=O)O)C(=O)N[C@@H](CC(=O)O)C(=O)N[C@@H](CCCCN)C(N)=O)NC(=O)[C@H](CC(C)C)NC(=O)[C@H](Cc2c[nH]c3ccccc23)NC(=O)[C@H](CC(=O)O)NC(=O)[C@H](CO)NC1=O` (Ac-MCHYISDWLCGSGSDYKDDDDK-NH2; disulfide 2-10), for which the Kd is more than 10000 nM at FGF-R4 ECD (setting [2]), more than 10000 nM at FGF-R1C ECD and more than 10 µM on FGF-R3C ECD.

As to `CC[C@H](C)[C@@H]1NC(=O)[C@@H](NC(=O)[C@H](CCSC)NC(C)=O)CSSC[C@@H](C(=O)NCC(=O)N[C@@H](CO)C(=O)NCC(=O)N[C@@H](CO)C(=O)N[C@@H](CC(=O)O)C(=O)N[C@@H](Cc2ccc(O)cc2)C(=O)N[C@@H](CCCCN)C(=O)N[C@@H](CC(=O)O)C(=O)N[C@@H](CC(=O)O)C(=O)N[C@@H](CC(=O)O)C(=O)N[C@@H](CC(=O)O)C(=O)N[C@@H](CCCCN)C(N)=O)NC(=O)[C@H](C(C)C)NC(=O)[C@H](C(C)C)NC(=O)[C@H](Cc2c[nH]c3ccccc23)NC(=O)[C@H](Cc2ccccc2)NC(=O)[C@H](CC(=O)O)NC(=O)[C@H](CO)NC(=O)[C@H](CC(C)C)NC(=O)[C@H](CCCNC(=N)N)NC(=O)[C@H](Cc2c[nH]cn2)NC1=O` (Ac-MCIHRLSDFWVVCGSGSDYKDDDDK-NH2; disulfide 2-13), the Kd at FGF-R4 ECD (setting [2]) stood at 41 nM; at FGF-R1C ECD it was 19 nM; on FGF-R3C ECD, 0.049 µM.

Regarding `CC[C@H](C)[C@@H]1NC(=O)[C@@H](NC(=O)[C@H](CCSC)NC(C)=O)CSSC[C@@H](C(=O)NCC(=O)N[C@@H](CO)C(=O)NCC(=O)N[C@@H](CO)C(=O)N[C@@H](CC(=O)O)C(=O)N[C@@H](Cc2ccc(O)cc2)C(=O)N[C@@H](CCCCN)C(=O)N[C@@H](CC(=O)O)C(=O)N[C@@H](CC(=O)O)C(=O)N[C@@H](CC(=O)O)C(=O)N[C@@H](CC(=O)O)C(=O)N[C@@H](CCCCN)C(N)=O)NC(=O)[C@H](CC(C)C)NC(=O)[C@H](CC(C)C)NC(=O)[C@H](Cc2ccc(O)cc2)NC(=O)[C@H](Cc2ccc(O)cc2)NC(=O)[C@H](Cc2ccccc2)NC(=O)[C@H](CC(C)C)NC(=O)[C@H](Cc2c[nH]cn2)NC(=O)[C@H](CC(C)C)NC(=O)[C@H](CC(=O)O)NC(=O)[C@H](CCCCN)NC1=O` (Ac-MCIKDLHLFYYLLCGSGSDYKDDDDK-NH2; disulfide 2-14), the results for the Kd at FGF-R4 ECD (setting [1]), on FGF-R1C ECD and on FGF-R3C ECD were 14 nM, 30 nM and more than 10 µM, respectively.

With `CC[C@H](C)[C@@H]1NC(=O)[C@@H](NC(=O)[C@H](CCSC)NC(C)=O)CSSC[C@@H](C(=O)NCC(=O)N[C@@H](CO)C(=O)NCC(=O)N[C@@H](CO)C(=O)N[C@@H](CC(=O)O)C(=O)N[C@@H](Cc2ccc(O)cc2)C(=O)N[C@@H](CCCCN)C(=O)N[C@@H](CC(=O)O)C(=O)N[C@@H](CC(=O)O)C(=O)N[C@@H](CC(=O)O)C(=O)N[C@@H](CC(=O)O)C(=O)N[C@@H](CCCCN)C(N)=O)NC(=O)[C@H](CO)NC(=O)[C@H](CO)NC(=O)[C@H](CCCNC(=N)N)NC(=O)[C@H](Cc2c[nH]c3ccccc23)NC(=O)[C@H](CC(C)C)NC(=O)[C@H](CC(C)C)NC(=O)[C@H](Cc2ccccc2)NC(=O)[C@H]([C@@H](C)O)NC(=O)[C@H](CCCCN)NC1=O` (Ac-MCIKTFLLWRSSCGSGSDYKDDDDK-NH2; disulfide 2-13), the Kd at FGF-R4 ECD (setting [2]) is more than 10000 nM; on FGF-R1C ECD it was more than 10000 nM; at FGF-R3C ECD it was more than 10 µM.

Take `CC[C@H](C)[C@@H]1NC(=O)[C@@H](NC(=O)[C@H](CCSC)NC(C)=O)CSSC[C@@H](C(=O)NCC(=O)N[C@@H](CO)C(=O)NCC(=O)N[C@@H](CO)C(=O)N[C@@H](CC(=O)O)C(=O)N[C@@H](Cc2ccc(O)cc2)C(=O)N[C@@H](CCCCN)C(=O)N[C@@H](CC(=O)O)C(=O)N[C@@H](CC(=O)O)C(=O)N[C@@H](CC(=O)O)C(=O)N[C@@H](CC(=O)O)C(=O)N[C@@H](CCCCN)C(N)=O)NC(=O)[C@H](CCCNC(=N)N)NC(=O)CNC(=O)[C@H](CCCNC(=N)N)NC(=O)[C@H](CC(C)C)NC(=O)[C@H](C(C)C)NC(=O)[C@H](CCCCN)NC(=O)[C@H](Cc2ccc(O)cc2)NC(=O)[C@H](CC(C)C)NC(=O)[C@H](CC(C)C)NC1=O` (Ac-MCILLYKVLRGRCGSGSDYKDDDDK-NH2; disulfide 2-13): the values for the dissociation constant Kd at FGF-R4 ECD (setting [2]), on FGF-R1C ECD and at FGF-R3C ECD were 128 nM, more than 10000 nM and more than 10 µM, respectively.
